# Experimental data published in patent publication US20150374767A1, “Treatment of Cancer” (priority 2013, published 2015).
# Read-outs that look alike come from different tables or passages of the source.
# Tests used:
# IR = IR (Homo sapiens, UniProt P06213); conditions: cited from earlier work
# NCI-H1975 = conditions: NCI-H1975, L858R/T790M EGFR; read-out: IC50, inhibiting survival of lung cancer cell line; cited from earlier work
# H1666 = conditions: H1666, wild-type EGFR; read-out: IC50, inhibiting survival of lung cancer cell line; cited from earlier work
# H3255 = conditions: H3255, Gefitinib sensitive L858R; cited from earlier work
# Flt3^D835Y = Flt3^D835Y (Homo sapiens, UniProt P36888, D835Y); conditions: cited from earlier work
# [1] = system: breast carcinoma and melanoma cell lines; conditions: read-out: IC50 in breast carcinoma and melanoma cell lines, reported; cited from earlier work
# SPC-111 = experiment: DCP cell death assay, drug alone, SPC-111; assay type: cell-based; conditions: Homo sapiens; SPC-111, 72 hrs; read-out: IC50 (DCP leakage)
# UVW cells = experiment: DCP cell death assay, drug alone, UVW; assay type: cell-based; conditions: Homo sapiens, 72 hrs, read-out: IC50 (DCP leakage)
# SKOV3 = experiment: DCP cell death assay, drug alone, SKOV3; assay type: cell-based; conditions: Homo sapiens, SK-OV-3; SKOV3, 72 hrs; read-out: IC50 (DCP leakage)
# HuH7 = assay type: cell-based, human
# Virttu cell panel = experiment: combination with HSV1716, DCP cell death, Chou-Talalay analysis, cell panel; assay type: cell-based, human
# RCC cell lines = conditions: read-out: IC50 in RCC cell lines, reported; cited from earlier work
# Ovcar3 [2] = experiment: DCP cell death assay, drug alone, Ovcar3; assay type: cell-based; conditions: Homo sapiens, OVCAR-3; Ovcar3, 72 hrs; read-out: IC50 (DCP leakage)
# CP70 = assay type: cell-based, human
# HSV1716gfp = experiment: GFP expression during infection with HSV1716gfp (drug toxicity to virus); assay type: cell-based, herpes simplex virus
# Virttu cell line panel = experiment: cells; assay type: cell-based; conditions: Homo sapiens
# SPC111 = experiment: combination with HSV1716, Chou-Talalay, SPC111; assay type: cell-based, human; conditions: SPC111, HSV1716 moi 0.5 and 0.05, 72 hours
# One58 = assay type: cell-based, human
# B-Raf = conditions: read-out: IC50 for B-Raf; cited from earlier work
# VEGFR2 = conditions: cited from earlier work
# [3] = system: human gastric carcinoma xenograft; experiment: patient-derived human gastric carcinoma xenograft model; parameters: species or system mice; conditions: mouse, in vivo
# Protocol: HSV1716 (Seprehvir) was used in a personalised oncology study. Patient-derived tumour samples were obtained from a gastric carcinoma. There have been no previous in vitro or in vivo pre-clinical studies with Seprehvir in human gastric carcinoma cells/xenografts. Seprehvir was stored at −70° C., and multiple vials were provided to avoid repeated freeze/thawing.
# Two groups of 3 mice with gastric carcinoma implants were treated with 2×10^6 pfu Seprehvir by either intratumoural (IT) or intravenous (IV) routes of administration. Control mice (n=3) received no treatment and in these mice the implants grew rapidly and all were sacrificed within 18 days (FIG. 61). For IV injection, Seprehvir was administered on days 0, 3, 10 and 18, at which point the tumors were too large and the mice were sacrificed.
# For IT injection of Seprehvir, 2×10^6 pfu was administered on days 0, 3, 10, 18, 21 and 25.
# . Control mice (n=3) received no treatment and in these mice the implants grew rapidly and all were sacrificed within 18 days (FIG. 62). […]. A follow-on study with HSV1716 administering more frequent by IV dosing at the higher concentration of 10^7 pfu was performed using the same human gastric carcinoma xenograft model. […].
# Groups of 3 mice received IV injection of HSV1716 at 1×10^7 pfu on days 1, 3, 5, 8, 10, 12, 15, 17 and 19. […]
# VEGFR3 = VEGFR3 (Homo sapiens, UniProt P35916); conditions: cited from earlier work
# Chain of VEGFR3 (P35916 25-1363): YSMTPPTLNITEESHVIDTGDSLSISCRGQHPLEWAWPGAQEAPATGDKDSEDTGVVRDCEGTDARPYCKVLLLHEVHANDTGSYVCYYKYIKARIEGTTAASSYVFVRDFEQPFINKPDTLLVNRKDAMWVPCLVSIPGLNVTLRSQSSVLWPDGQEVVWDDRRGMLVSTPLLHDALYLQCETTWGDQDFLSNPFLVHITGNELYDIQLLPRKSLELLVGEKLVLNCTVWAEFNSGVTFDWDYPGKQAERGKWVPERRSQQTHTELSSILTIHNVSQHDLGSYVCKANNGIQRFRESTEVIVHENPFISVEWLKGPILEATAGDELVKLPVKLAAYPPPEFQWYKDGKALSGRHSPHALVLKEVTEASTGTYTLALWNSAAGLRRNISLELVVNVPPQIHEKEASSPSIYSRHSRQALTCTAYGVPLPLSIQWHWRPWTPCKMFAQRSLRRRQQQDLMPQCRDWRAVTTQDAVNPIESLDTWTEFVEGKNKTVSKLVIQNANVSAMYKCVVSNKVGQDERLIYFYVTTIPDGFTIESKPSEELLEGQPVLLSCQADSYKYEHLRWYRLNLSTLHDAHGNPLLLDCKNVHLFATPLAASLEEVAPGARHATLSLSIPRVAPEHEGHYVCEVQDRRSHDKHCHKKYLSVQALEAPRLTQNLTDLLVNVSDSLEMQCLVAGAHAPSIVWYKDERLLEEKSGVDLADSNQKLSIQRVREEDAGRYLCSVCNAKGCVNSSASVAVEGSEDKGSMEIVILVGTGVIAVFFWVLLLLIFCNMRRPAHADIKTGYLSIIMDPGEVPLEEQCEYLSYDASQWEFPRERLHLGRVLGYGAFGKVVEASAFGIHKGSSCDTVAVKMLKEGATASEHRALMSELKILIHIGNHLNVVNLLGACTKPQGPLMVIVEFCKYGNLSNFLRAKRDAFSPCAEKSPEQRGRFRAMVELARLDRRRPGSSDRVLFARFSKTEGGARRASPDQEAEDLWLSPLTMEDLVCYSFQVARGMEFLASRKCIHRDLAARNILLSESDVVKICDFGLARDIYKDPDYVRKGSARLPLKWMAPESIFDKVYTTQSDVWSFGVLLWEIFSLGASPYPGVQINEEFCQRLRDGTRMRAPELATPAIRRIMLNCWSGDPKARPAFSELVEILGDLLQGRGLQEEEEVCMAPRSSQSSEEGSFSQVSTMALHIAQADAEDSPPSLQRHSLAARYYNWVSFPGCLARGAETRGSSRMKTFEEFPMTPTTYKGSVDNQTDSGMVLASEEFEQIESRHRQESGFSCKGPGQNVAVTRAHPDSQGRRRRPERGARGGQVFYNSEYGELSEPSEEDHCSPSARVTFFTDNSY
# HepG2-luc = assay type: cell-based, human
# UVW = assay type: cell-based, human
# HCC cell lines = assay type: cell-based, human
# Hep3B = assay type: cell-based, human
# HCC = conditions: monotherapy of HCC; cited from earlier work
# Ovcar3 [4] = assay type: cell-based, human
# Chain of IR (P06213 28-1382): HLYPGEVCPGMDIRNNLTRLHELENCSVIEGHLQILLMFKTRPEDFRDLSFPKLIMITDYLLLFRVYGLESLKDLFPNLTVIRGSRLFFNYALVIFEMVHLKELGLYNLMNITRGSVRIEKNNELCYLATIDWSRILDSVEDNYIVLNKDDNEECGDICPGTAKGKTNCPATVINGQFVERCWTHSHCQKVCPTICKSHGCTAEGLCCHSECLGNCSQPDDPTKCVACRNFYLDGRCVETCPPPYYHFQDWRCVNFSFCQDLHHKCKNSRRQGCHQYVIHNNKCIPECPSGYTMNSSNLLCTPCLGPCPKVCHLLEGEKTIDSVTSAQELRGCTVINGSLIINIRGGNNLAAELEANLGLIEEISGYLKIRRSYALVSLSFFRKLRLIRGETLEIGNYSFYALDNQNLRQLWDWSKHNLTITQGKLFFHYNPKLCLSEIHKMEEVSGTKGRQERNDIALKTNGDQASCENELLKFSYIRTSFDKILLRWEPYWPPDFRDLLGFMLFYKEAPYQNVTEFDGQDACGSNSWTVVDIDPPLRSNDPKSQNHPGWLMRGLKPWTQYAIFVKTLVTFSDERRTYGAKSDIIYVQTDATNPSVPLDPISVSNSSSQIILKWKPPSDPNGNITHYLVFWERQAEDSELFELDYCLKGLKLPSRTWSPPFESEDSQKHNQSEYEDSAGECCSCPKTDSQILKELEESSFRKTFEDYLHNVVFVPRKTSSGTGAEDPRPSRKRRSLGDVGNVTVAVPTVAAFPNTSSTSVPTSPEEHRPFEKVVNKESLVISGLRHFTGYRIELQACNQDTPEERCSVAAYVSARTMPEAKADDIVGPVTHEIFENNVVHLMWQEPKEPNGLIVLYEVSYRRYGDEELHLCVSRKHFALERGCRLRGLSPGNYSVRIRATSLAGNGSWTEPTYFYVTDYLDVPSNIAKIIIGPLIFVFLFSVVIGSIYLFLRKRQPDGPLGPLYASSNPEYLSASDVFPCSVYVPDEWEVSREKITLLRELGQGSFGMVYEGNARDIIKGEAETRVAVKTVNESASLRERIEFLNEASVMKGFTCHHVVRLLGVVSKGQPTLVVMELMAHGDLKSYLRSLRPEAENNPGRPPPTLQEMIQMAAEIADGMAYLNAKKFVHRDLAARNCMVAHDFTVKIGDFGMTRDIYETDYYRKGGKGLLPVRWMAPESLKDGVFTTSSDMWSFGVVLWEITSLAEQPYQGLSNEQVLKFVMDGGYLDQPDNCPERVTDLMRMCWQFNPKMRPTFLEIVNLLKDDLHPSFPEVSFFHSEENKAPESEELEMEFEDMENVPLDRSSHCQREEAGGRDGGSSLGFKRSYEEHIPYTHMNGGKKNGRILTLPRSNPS
smiles,measurement,setting,value
"CC(C)(C)c1cc(C=C(C#N)C#N)cc(Br)c1O [AG-1024, 2-(3-bromo-5-tert-butyl-4-hydroxybenzylidene)malononitrile]",IC50,IR,100 nM
"CN(C)CC=CC(=O)Nc1cc2c(Nc3ccc(F)c(Cl)c3)ncnc2cc1O[C@H]1CCOC1 [Afantinib, N-[4-[(3-Chloro-4-fluorophenyl)amino]-7-[[(3S)-tetrahydro-3-furanyl]oxy]-6-quinazolinyl]-4(dimethylamino)-2-butenamide]",IC50,NCI-H1975,< 100 nM
same,IC50,H1666,< 100 nM
same,"IC50, inhibiting survival of lung cancer cell line",H3255,subnanomolar
"S=C(NCc1ccc2c(c1)OCO2)N1CCN(c2ncnc3c2oc2ccccc23)CC1 [Amuvatinib, N-(benzo[d][1,3]dioxol-5-ylmethyl)-4-(benzofuro[3,2-d]pyrimidin-4-yl)piperazine-1-carbothioamide]",IC50,Flt3^D835Y,81 nM
"Cc1ccc(Nc2nccc(N(C)c3ccc4c(C)n(C)nc4c3)n2)cc1S(N)(=O)=O [Pazopanib, 5-[[4-[(2,3-Dimethyl-2H-indazol-6-yl)methylamino]-2-pyrimidinyl]amino]-2-methylbenzolsulfonamide]",IC50,[1],1000 to 10000 nM
same,IC50,SPC-111,40000 nM
same,IC50,UVW cells,300 nM
same,IC50,SKOV3,40000 nM
same,synergy/antagonism with HSV1716 on cell death (Chou-Talalay),HuH7,limited synergy
same,number of cell lines tested with clear synergy signals / synergism with HSV1716,Virttu cell panel,7/9
same,IC50,RCC cell lines,30000 to 60000 nM
same,IC50,Ovcar3 [2],40000 nM
same,synergy/antagonism with HSV1716 on cell death (Chou-Talalay),CP70,synergistic
same,effect on GFP expression during HSV1716gfp infection,"HSV1716gfp; CP70, moi 0.5 and 0.05, 72 hrs",stimulated GFP expression
same,effect on GFP expression during HSV1716gfp infection,"HSV1716gfp; HepG2-luc, both moi (0.5 and 0.05), 72 hrs",little effect on GFP expression
same,effect on GFP expression during HSV1716gfp infection,"HSV1716gfp; HuH7, moi 0.05, 72 hrs",more potent inhibitory effect
same,effect on GFP expression during HSV1716gfp infection,"HSV1716gfp; HuH7, moi 0.5, 72 hrs",inhibited GFP expression
same,effect on GFP expression during HSV1716gfp infection,"HSV1716gfp; One58, moi 0.05, 72 hrs",more potent inhibitory effect
same,effect on GFP expression during HSV1716gfp infection,"HSV1716gfp; One58, moi 0.5, 72 hrs",inhibited GFP expression
same,effect on GFP expression during HSV1716gfp infection,"HSV1716gfp; Ovcar3, moi 0.05, 72 hrs",more potent inhibitory effect
same,effect on GFP expression during HSV1716gfp infection,"HSV1716gfp; Ovcar3, moi 0.5, 72 hrs",inhibited GFP expression
same,effect on GFP expression during HSV1716gfp infection,"HSV1716gfp; SKOV3, moi 0.05, 72 hrs",no inhibitory effects
same,effect on GFP expression during HSV1716gfp infection,"HSV1716gfp; SKOV3, moi 0.5, 72 hrs",inhibited GFP expression
same,effect on GFP expression during HSV1716gfp infection,"HSV1716gfp; UVW, moi 0.05, 72 hrs",no inhibitory effects
same,effect on GFP expression during HSV1716gfp infection,"HSV1716gfp; UVW, moi 0.5, 72 hrs",inhibited GFP expression
same,IC50,"Virttu cell line panel; Hep3B, HuH7, HepG2-luc, CP70, U87 and One58, 72 hrs, read-out: IC50 (DCP leakage), range",3000 to 18000 nM
same,synergy/antagonism with HSV1716 on cell death (Chou-Talalay),SPC111,limited synergy
same,synergy/antagonism with HSV1716 on cell death (Chou-Talalay),One58,synergistic
"CNC(=O)c1cc(Oc2ccc(NC(=O)Nc3ccc(Cl)c(C(F)(F)F)c3)c(F)c2)ccn1.O [Regorafenib, 4-[4-({[4-Chloro-3-(trifluoromethyl)phenyl]carbamoyl}amino)-3-fluorophenoxy]-N-methylpyridine-2-carboxamide hydrate]",tumour growth inhibition,[3],highly effective at tumour growth inhibition
"CCn1c(N)c(C(=O)NC)c(=O)c2ccc(C#C[C@@](C)(O)COC)nc21 [SAR131675, (R)-2-amino-1-ethyl-7-(3-hydroxy-4-methoxy-3-methylbut-1-ynyl)-N-methyl-4-oxo-1,4-dihydro-1,8-naphthyridine-3-carboxamide]",IC50,VEGFR3,20 nM
"CNC(=O)c1cc(Oc2ccc(NC(=O)Nc3ccc(Cl)c(C(F)(F)F)c3)cc2)ccn1 [Sorafenib, 4-[4-[[4-chloro-3-(trifluoromethyl)phenyl]carbamoylamino]phenoxy]-N-methyl-pyridine-2-carboxamide]",synergy/antagonism with HSV1716 on cell death (Chou-Talalay),HepG2-luc,synergistically
same,IC50,UVW cells,100 nM
same,synergy/antagonism with HSV1716 on cell death (Chou-Talalay),UVW,no synergies
same,synergy/antagonism with HSV1716 on cell death (Chou-Talalay),HuH7,synergistically
same,synergy with HSV1716 on cell death (Chou-Talalay),HCC cell lines,strongly synergistic
same,synergy/antagonism with HSV1716 on cell death (Chou-Talalay),Hep3B,synergistically
same,number of cell lines tested with clear synergy signals / synergism with HSV1716,Virttu cell panel,8/10
same,synergy/antagonism with HSV1716 on cell death (Chou-Talalay),CP70,synergies occurred
same,prolongation of median survival and time to progression,HCC,~3 months
same,reduction of the risk of death during year 1,HCC,31%
same,effect on GFP expression during HSV1716gfp infection,"HSV1716gfp; CP70, moi 0.05, 72 hrs",more marked inhibitory effect
same,effect on GFP expression during HSV1716gfp infection,"HSV1716gfp; Hep3B, moi 0.05, 72 hrs",more marked inhibitory effect
same,effect on GFP expression during HSV1716gfp infection,"HSV1716gfp; HuH7, moi 0.05, 72 hrs",small inhibitory effect at the 2.5 μM Sorafenib concentration
same,effect on GFP expression during HSV1716gfp infection,"HSV1716gfp; One58, moi 0.05, 72 hrs",more marked inhibitory effect
same,effect on GFP expression during HSV1716gfp infection,"HSV1716gfp; Ovcar3, moi 0.05, 72 hrs",more marked inhibitory effect
same,effect on GFP expression during HSV1716gfp infection,"HSV1716gfp; SKOV3, moi 0.05, 72 hrs",no effect on GFP expression
same,effect on GFP expression during HSV1716gfp infection,"HSV1716gfp; SPC111, moi 0.05, 72 hrs",more marked inhibitory effect
same,effect on GFP expression during HSV1716gfp infection,"HSV1716gfp; U87, moi 0.05, 72 hrs",small inhibitory effect at the 2.5 μM Sorafenib concentration
same,effect on GFP expression during HSV1716gfp infection,"HSV1716gfp; UVW, moi 0.05, 72 hrs",no effect on GFP expression
same,effect on GFP expression during HSV1716gfp infection,"HSV1716gfp; all cell lines tested, moi 0.5, 72 hrs",little effect on GFP expression
same,IC50,"Virttu cell line panel; most/all cell lines of panel, 72 hrs, read-out: IC50 (DCP leakage), range over cell lines",1000 to 10000 nM
same,synergy/antagonism with HSV1716 on cell death (Chou-Talalay),One58,no synergies
same,synergy/antagonism with HSV1716 on cell death (Chou-Talalay),Ovcar3 [4],synergies occurred
